Data taken from patent US20250228239A1, “MOLECULES HAVING PESTICIDAL UTILITY, AND INTERMEDIATES, COMPOSITIONS, AND PROCESSES, RELATED THERETO” (priority 2024, published 2025).
Like-named read-outs stand apart in the source and are kept apart here.

Tests used:
[1] = test system: Beet Armyworm (Spodoptera exigua, LAPHEG); experiment: Bioassays on Beet Armyworm (BAW), 128-well diet tray assay; format: in vivo; conditions: Spodoptera exigua, read-out: BAW
How it was run: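 Mortality of second-instar larvae (1–5/well) on artificial diet treated with 50 μg/cm^2 compound, read after 5–7 days at 25° C.; values are means of eight wells.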

[2] = test system: Cabbage Looper (Trichoplusia ni, TRIPNI); experiment: Bioassays on Cabbage Looper (CL), 128-well diet tray assay; format: in vivo; conditions: Trichoplusia ni, read-out: CL
How it was run: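 Diet tray, 2nd instar, 1–5 larvae/well; 50 μg/cm^2 compound surface-applied (acetone:water 90:10), dried; 8 wells/treatment; 25° C, 14:10 L:D, 5–7 d; % mortality, mean of 8 wells.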

[3] = Table ABC: Biological Results, species BAW
[4] = Table ABC: Biological Results, species CL

SMILES | pest or weed control at 50 µg/cm2 [1, 3] | pest or weed control at 50 µg/cm2 [2, 4] | pest or weed control at 50 µg/cm2 ([1]; Beet Armyworm, rating class) | pest or weed control at 50 µg/cm2 ([2]; Cabbage Looper, rating class)
Nc1ccc(F)c(NC(=O)c2cc(NC(=O)[C@H]3[C@H](c4cc(Cl)c(Cl)c(Cl)c4)C3(Cl)Cl)cc(F)c2Cl)c1F [F1337, N-(3-Amino-2,6-difluorophenyl)-2-chloro-5-((1R,3R)-2,2-dichloro-3-(3,4,5-trichlorophenyl)cyclopropane-1-carboxamido)-3-fluorobenzamide] | 50 to 100% | 50 to 100% | – | –
Nc1ccc(F)c(NC(=O)c2cc(NC(=O)[C@H]3[C@H](c4ccc(Cl)c(Cl)c4)C3(Cl)Cl)cc(F)c2Cl)c1F [F1338, N-(3-Amino-2,6-difluorophenyl)-2-chloro-5-((1R,3R)-2,2-dichloro-3-(3,4-dichlorophenyl)cyclopropane-1-carboxamido)-3-fluorobenzamide] | 50 to 100% | 50 to 100% | – | –
Nc1ccc(F)c(NC(=O)c2cc(NC(=O)[C@H]3[C@H](c4ccc(F)c(C(F)(F)F)c4)C3(Cl)Cl)cc(F)c2Cl)c1F [F1339, N-(3-Amino-2,6-difluorophenyl)-2-chloro-5-((1R,3R)-2,2-dichloro-3-(4-fluoro-3-(trifluoromethyl)phenyl)cyclopropane-1-carboxamido)-3-fluorobenzamide] | 50 to 100% | 50 to 100% | – | –
O=C(Nc1c(F)ccc(NC(=O)C(F)(F)F)c1F)c1cc(NC(=O)[C@H]2[C@H](c3cc(Cl)cc(Cl)c3)C2(Cl)Cl)cc(F)c1Cl [F1340, 2-Chloro-5-((1R,3R)-2,2-dichloro-3-(3,5-dichlorophenyl)cyclopropane-1-carboxamido)-N-(2,6-difluoro-3-(2,2,2-trifluoroacetamido)phenyl)-3-fluorobenzamide] | 50 to 100% | 50 to 100% | – | –
O=C(Nc1c(F)ccc(NC(=O)C(F)F)c1F)c1cc(NC(=O)[C@H]2[C@H](c3cc(Cl)cc(Cl)c3)C2(Cl)Cl)cc(F)c1Cl [F1341, 2-Chloro-5-((1R,3R)-2,2-dichloro-3-(3,5-dichlorophenyl)cyclopropane-1-carboxamido)-N-(3-(2,2-difluoroacetamido)-2,6-difluorophenyl)-3-fluorobenzamide] | 50 to 100% | 50 to 100% | – | –
O=C(Nc1c(F)ccc(NC(=O)C(F)(F)F)c1F)c1cc(NC(=O)[C@H]2[C@H](c3cc(Cl)c(Cl)c(Cl)c3)C2(Cl)Cl)cc(F)c1Cl [F1342, 2-Chloro-5-((1R,3R)-2,2-dichloro-3-(3,4,5-trichlorophenyl)cyclopropane-1-carboxamido)-N-(2,6-difluoro-3-(2,2,2-trifluoroacetamido)phenyl)-3-fluorobenzamide] | 50 to 100% | 50 to 100% | – | –
O=C(Nc1c(F)ccc(NC(=O)C(F)F)c1F)c1cc(NC(=O)[C@H]2[C@H](c3cc(Cl)c(Cl)c(Cl)c3)C2(Cl)Cl)cc(F)c1Cl [F1343, 2-Chloro-5-((1R,3R)-2,2-dichloro-3-(3,4,5-trichlorophenyl)cyclopropane-1-carboxamido)-N-(3-(2,2-difluoroacetamido)-2,6-difluorophenyl)-3-fluorobenzamide] | 50 to 100% | 50 to 100% | – | –
O=C(Nc1c(F)ccc(NC(=O)C(F)(F)F)c1F)c1cc(NC(=O)[C@H]2[C@H](c3ccc(Cl)c(Cl)c3)C2(Cl)Cl)cc(F)c1Cl [F1344, 2-Chloro-5-((1R,3R)-2,2-dichloro-3-(3,4-dichlorophenyl)cyclopropane-1-carboxamido)-N-(2,6-difluoro-3-(2,2,2-trifluoroacetamido)phenyl)-3-fluorobenzamide] | 50 to 100% | 50 to 100% | – | –
O=C(Nc1c(F)ccc(NC(=O)C(F)F)c1F)c1cc(NC(=O)[C@H]2[C@H](c3ccc(Cl)c(Cl)c3)C2(Cl)Cl)cc(F)c1Cl [F1345, 2-Chloro-5-((1R,3R)-2,2-dichloro-3-(3,4-dichlorophenyl)cyclopropane-1-carboxamido)-N-(3-(2,2-difluoroacetamido)-2,6-difluorophenyl)-3-fluorobenzamide] | 50 to 100% | 50 to 100% | – | –
O=C(Nc1c(F)ccc(NC(=O)C(F)(F)F)c1F)c1cc(NC(=O)[C@H]2[C@H](c3ccc(F)c(C(F)(F)F)c3)C2(Cl)Cl)cc(F)c1Cl [F1346, 2-Chloro-5-((1R,3R)-2,2-dichloro-3-(4-fluoro-3-(trifluoromethyl)phenyl)cyclopropane-1-carboxamido)-N-(2,6-difluoro-3-(2,2,2-trifluoroacetamido)phenyl)-3-fluorobenzamide] | 50 to 100% | 50 to 100% | – | –
O=C(Nc1c(F)ccc(NC(=O)C(F)F)c1F)c1cc(NC(=O)[C@H]2[C@H](c3ccc(F)c(C(F)(F)F)c3)C2(Cl)Cl)cc(F)c1Cl [F1347, 2-Chloro-5-((1R,3R)-2,2-dichloro-3-(4-fluoro-3-(trifluoromethyl)phenyl)cyclopropane-1-carboxamido)-N-(3-(2,2-difluoroacetamido)-2,6-difluorophenyl)-3-fluorobenzamide] | 50 to 100% | 50 to 100% | – | –
O=C(Nc1ccc(F)c(NS(=O)(=O)CCC(F)(F)F)c1F)c1cc(NC(=O)[C@H]2[C@H](c3ccc(F)c(C(F)(F)F)c3)C2(Cl)Cl)ccc1Cl [F1350, 2-Chloro-5-((1R,3R)-2,2-dichloro-3-(4-fluoro-3-(trifluoromethyl)phenyl)cyclopropane-1-carboxamido)-N-(2,4-difluoro-3-((3,3,3-trifluoropropyl)sulfonamido)phenyl)benzamide] | 50 to 100% | 50 to 100% | – | –
O=C(Nc1c(F)ccc(NC(=O)C(F)(F)Br)c1F)c1cc(NC(=O)[C@H]2[C@H](c3ccc(F)c(C(F)(F)F)c3)C2(Cl)Cl)cc(F)c1Cl [F1356, N-(3-(2-Bromo-2,2-difluoroacetamido)-2,6-difluorophenyl)-2-chloro-5-((1R,3R)-2,2-dichloro-3-(4-fluoro-3-(trifluoromethyl)phenyl)cyclopropane-1-carboxamido)-3-fluorobenzamide] | 50 to 100% | 50 to 100% | – | –
O=C(Nc1ccc(F)c(NS(=O)(=O)CC2CC2(Cl)Cl)c1F)c1cc(NC(=O)[C@H]2[C@H](c3ccc(F)c(C(F)(F)F)c3)C2(Cl)Cl)ccc1Cl (stereo partly drawn) [F1361, 2-Chloro-5-((1R,3R)-2,2-dichloro-3-(4-fluoro-3-(trifluoromethyl)phenyl)cyclopropane-1-carboxamido)-N-(3-(((2,2-dichlorocyclopropyl)methyl)sulfonamido)-2,4-difluorophenyl)benzamide] | 50 to 100% | 50 to 100% | – | –
Nc1cc(NC(=O)c2cc(NC(=O)[C@H]3[C@H](c4ccc(F)c(Cl)c4)C3(Cl)Cl)cc(F)c2Cl)c(F)cc1F [F1395, N-(5-Amino-2,4-difluorophenyl)-2-chloro-5-((1R,3R)-2,2-dichloro-3-(3-chloro-4-fluorophenyl)cyclopropane-1-carboxamido)-3-fluorobenzamide] | – | – | 50 to 100% | 50 to 100%
Nc1cc(NC(=O)c2cc(NC(=O)[C@H]3[C@H](c4ccc(Cl)c(Cl)c4)C3(Cl)Cl)cc(F)c2Cl)c(F)cc1F [F1396, N-(5-Amino-2,4-difluorophenyl)-2-chloro-5-((1R,3R)-2,2-dichloro-3-(3,4-dichlorophenyl)cyclopropane-1-carboxamido)-3-fluorobenzamide] | – | – | 50 to 100% | 50 to 100%
Nc1cc(NC(=O)c2cc(NC(=O)[C@H]3[C@H](c4cc(Cl)c(Cl)c(Cl)c4)C3(Cl)Cl)cc(F)c2Cl)c(F)cc1F [F1397, N-(5-Amino-2,4-difluorophenyl)-2-chloro-5-((1R,3R)-2,2-dichloro-3-(3,4,5-trichlorophenyl)cyclopropane-1-carboxamido)-3-fluorobenzamide] | – | – | 50 to 100% | 50 to 100%
Nc1cc(NC(=O)c2cc(NC(=O)[C@H]3[C@H](c4ccc(F)c(C(F)(F)F)c4)C3(Cl)Cl)cc(F)c2Cl)c(F)cc1F [F1398, N-(5-Amino-2,4-difluorophenyl)-2-chloro-5-((1R,3R)-2,2-dichloro-3-(4-fluoro-3-(trifluoromethyl)phenyl)cyclopropane-1-carboxamido)-3-fluorobenzamide] | – | – | 50 to 100% | 50 to 100%
Nc1cc(NC(=O)c2cc(NC(=O)[C@H]3[C@H](c4cc(Cl)cc(Cl)c4)C3(Cl)Cl)cc(F)c2Cl)c(F)cc1F [F1399, N-(5-Amino-2,4-difluorophenyl)-2-chloro-5-((1R,3R)-2,2-dichloro-3-(3,5-dichlorophenyl)cyclopropane-1-carboxamido)-3-fluorobenzamide] | – | – | 50 to 100% | 50 to 100%
O=C(Nc1cc(NC(=O)C(F)F)c(F)cc1F)c1cc(NC(=O)[C@H]2[C@H](c3ccc(F)c(Cl)c3)C2(Cl)Cl)cc(F)c1Cl [F1400, 2-Chloro-5-((1R,3R)-2,2-dichloro-3-(3-chloro-4-fluorophenyl)cyclopropane-1-carboxamido)-N-(5-(2,2-difluoroacetamido)-2,4-difluorophenyl)-3-fluorobenzamide] | – | – | 50 to 100% | 50 to 100%
O=C(Nc1cc(NC(=O)C(F)(F)F)c(F)cc1F)c1cc(NC(=O)[C@H]2[C@H](c3ccc(F)c(Cl)c3)C2(Cl)Cl)cc(F)c1Cl [F1401, 2-Chloro-5-((1R,3R)-2,2-dichloro-3-(3-chloro-4-fluorophenyl)cyclopropane-1-carboxamido)-N-(2,4-difluoro-5-(2,2,2-trifluoroacetamido)phenyl)-3-fluorobenzamide] | – | – | 50 to 100% | 50 to 100%
